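Results reflect a 48-hour exposure of cells in 96-well plates to compound at five concentrations. GI50: concentration for 50% inhibition of growth.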 The source made the active and inactive calls. No stated cut-off is given here; in the data, active = GI50 up to about 1.1 µM and inactive = higher.
Key:
Assay in all cases: inhibition of tumour cell growth, NCI panel, 48 h
SNB-19 = test system: SNB-19
SN12C = test system: SN12C
CAKI-1 = test system: CAKI-1
SK-MEL-5 = test system: SK-MEL-5
HOP-62 = test system: HOP-62
OVCAR-5 = test system: OVCAR-5
OVCAR-4 = test system: OVCAR-4
SF-268 = test system: SF-268
SW-620 = test system: SW-620
SK-OV-3 = test system: SK-OV-3
HCC 2998 = test system: HCC 2998
LOX IMVI = test system: LOX IMVI
UACC-257 = test system: UACC-257
UACC-62 = test system: UACC-62
DU-145 = test system: DU-145
NCI-H226 = test system: NCI-H226
A549 = test system: A549
RXF 393 = test system: RXF 393
NCI-H23 = test system: NCI-H23
SK-MEL-28 = test system: SK-MEL-28
K562 = test system: K562
HCT-116 = test system: HCT-116
T47D = test system: T47D
SNB-75 = test system: SNB-75
ACHN = test system: ACHN
M14 = test system: M14
HT-29 = test system: HT-29
NCI-H522 = test system: NCI-H522
786-0 = test system: 786-0
SF-539 = test system: SF-539
HCT-15 = test system: HCT-15
Malme-3M = test system: Malme-3M
SF-295 = test system: SF-295
TK-10 = test system: TK-10
EKVX = test system: EKVX
Hs-578T = test system: Hs-578T
MDA-MB-231 = test system: MDA-MB-231
COLO 205 = test system: COLO 205
U-251 = test system: U-251
RPMI-8226 = test system: RPMI-8226
CCRF-CEM = test system: CCRF-CEM
PC-3 = test system: PC-3
IGROV-1 = test system: IGROV-1
BT-549 = test system: BT-549
SR = test system: SR
KM12 = test system: KM12
OVCAR-3 = test system: OVCAR-3
MDA-MB-435 = test system: MDA-MB-435
MCF7 = test system: MCF7
OVCAR-8 = test system: OVCAR-8
UO-31 = test system: UO-31
MOLT-4 = test system: MOLT-4
SK-MEL-2 = test system: SK-MEL-2
HOP-92 = test system: HOP-92
HL-60 = test system: HL-60
NCI-H460 = test system: NCI-H460
MDA-N = test system: MDA-N
A498 = test system: A498
NCI/ADR-RES = test system: NCI/ADR-RES

## CC(C)(C)c1cc(C(=O)Nc2cc(Br)c(Br)cc2S(N)(=O)=O)cc(C(C)(C)C)c1O
SNB-19
  GI50: 13.3 µM (inactive)
SN12C
  GI50: 7.24 µM (inactive)
CAKI-1
  GI50: 9.93 µM (inactive)
SK-MEL-5
  GI50: 12.4 µM (inactive)
HOP-62
  GI50: 20.9 µM (inactive)
OVCAR-5
  GI50: 12.4 µM (inactive)
OVCAR-4
  GI50: 12.1 µM (inactive)
SF-268
  GI50: 13.3 µM (inactive)
SW-620
  GI50: 9.42 µM (inactive)
SK-OV-3
  GI50: 16.4 µM (inactive)
HCC 2998
  GI50: 5.07 µM (inactive)
LOX IMVI
  GI50: 6.46 µM (inactive)
UACC-257
  GI50: 17.9 µM (inactive)
UACC-62
  GI50: 6.08 µM (inactive)
DU-145
  GI50: 15.3 µM (inactive)
NCI-H226
  GI50: 13.1 µM (inactive)
A549
  GI50: 9.12 µM (inactive)
RXF 393
  GI50: 11.1 µM (inactive)
NCI-H23
  GI50: 20 µM (inactive)
SK-MEL-28
  GI50: 13.4 µM (inactive)
K562
  GI50: 5.71 µM (inactive)
HCT-116
  GI50: 8.24 µM (inactive)
T47D
  GI50: 3.24 µM (inactive)
SNB-75
  GI50: 9.31 µM (inactive)
ACHN
  GI50: 11.3 µM (inactive)
M14
  GI50: 15.2 µM (inactive)
HT-29
  GI50: 5.01 µM (inactive)
NCI-H522
  GI50: 11.8 µM (inactive)
786-0
  GI50: 11 µM (inactive)
SF-539
  GI50: 15.8 µM (inactive)
HCT-15
  GI50: 3.85 µM
Malme-3M
  GI50: 13.5 µM (inactive)
SF-295
  GI50: 14.2 µM (inactive)
TK-10
  GI50: 12.9 µM (inactive)
EKVX
  GI50: 12.8 µM (inactive)
Hs-578T
  GI50: 11.9 µM (inactive)
MDA-MB-231
  GI50: 9.51 µM (inactive)
COLO 205
  GI50: 5.08 µM (inactive)
U-251
  GI50: 12.5 µM (inactive)
RPMI-8226
  GI50: 8.32 µM (inactive)
CCRF-CEM
  GI50: 4.28 µM (inactive)
PC-3
  GI50: 10.7 µM (inactive)
IGROV-1
  GI50: 12.6 µM (inactive)
BT-549
  GI50: 12.2 µM (inactive)
SR
  GI50: 6 µM (inactive)
KM12
  GI50: 5.77 µM (inactive)
OVCAR-3
  GI50: 7.91 µM (inactive)
MDA-MB-435
  GI50: 12.3 µM (inactive)
MCF7
  GI50: 5.37 µM (inactive)
OVCAR-8
  GI50: 13.3 µM (inactive)
UO-31
  GI50: 10.5 µM (inactive)
MOLT-4
  GI50: 4.39 µM (inactive)
SK-MEL-2
  GI50: 10 µM (inactive)
HOP-92
  GI50: 6.52 µM (inactive)

## CC1=NC(=O)CNN1C1=NNC2(C(=O)N1)c1ccccc1-c1ccccc12
SNB-19
  GI50: > 100 µM (inactive)
SN12C
  GI50: > 100 µM (inactive)
CAKI-1
  GI50: > 100 µM (inactive)
SK-MEL-5
  GI50: > 100 µM (inactive)
HOP-62
  GI50: > 100 µM (inactive)
OVCAR-5
  GI50: > 100 µM (inactive)
OVCAR-4
  GI50: > 100 µM (inactive)
SF-268
  GI50: > 100 µM (inactive)
SW-620
  GI50: > 100 µM (inactive)
SK-OV-3
  GI50: > 100 µM (inactive)
HCC 2998
  GI50: > 100 µM (inactive)
LOX IMVI
  GI50: > 100 µM (inactive)
HL-60
  GI50: > 100 µM (inactive)
UACC-257
  GI50: > 100 µM (inactive)
UACC-62
  GI50: > 100 µM (inactive)
DU-145
  GI50: > 100 µM (inactive)
NCI-H226
  GI50: > 100 µM (inactive)
A549
  GI50: > 100 µM (inactive)
RXF 393
  GI50: > 100 µM (inactive)
NCI-H23
  GI50: > 100 µM (inactive)
SK-MEL-28
  GI50: > 100 µM (inactive)
K562
  GI50: > 100 µM (inactive)
HCT-116
  GI50: > 100 µM (inactive)
SNB-75
  GI50: > 100 µM (inactive)
ACHN
  GI50: > 100 µM (inactive)
M14
  GI50: > 100 µM (inactive)
HT-29
  GI50: > 100 µM (inactive)
NCI-H522
  GI50: > 100 µM (inactive)
786-0
  GI50: > 100 µM (inactive)
SF-539
  GI50: > 100 µM (inactive)
HCT-15
  GI50: > 100 µM
Malme-3M
  GI50: > 100 µM (inactive)
SF-295
  GI50: > 100 µM (inactive)
TK-10
  GI50: > 100 µM (inactive)
EKVX
  GI50: > 100 µM (inactive)
Hs-578T
  GI50: 23.5 µM (inactive)
MDA-MB-231
  GI50: > 100 µM (inactive)
NCI-H460
  GI50: > 100 µM (inactive)
COLO 205
  GI50: > 100 µM (inactive)
U-251
  GI50: > 100 µM (inactive)
CCRF-CEM
  GI50: > 100 µM (inactive)
PC-3
  GI50: > 100 µM (inactive)
MDA-N
  GI50: > 100 µM (inactive)
IGROV-1
  GI50: > 100 µM (inactive)
BT-549
  GI50: > 100 µM (inactive)
A498
  GI50: > 100 µM (inactive)
SR
  GI50: 55 µM (inactive)
OVCAR-3
  GI50: > 100 µM (inactive)
MDA-MB-435
  GI50: > 100 µM (inactive)
MCF7
  GI50: > 100 µM (inactive)
OVCAR-8
  GI50: > 100 µM (inactive)
UO-31
  GI50: > 100 µM (inactive)
SK-MEL-2
  GI50: > 100 µM (inactive)
NCI/ADR-RES
  GI50: > 100 µM (inactive)
HOP-92
  GI50: > 100 µM (inactive)

## Cc1cc(/N=C/c2c(CO)cnc(C)c2O)c(/N=C/c2c(CO)cnc(C)c2O)cc1C.[Zn+2]
SNB-19
  GI50: > 100 µM (inactive)
CAKI-1
  GI50: > 100 µM (inactive)
SK-MEL-5
  GI50: > 100 µM (inactive)
HOP-62
  GI50: > 100 µM (inactive)
OVCAR-4
  GI50: > 100 µM (inactive)
HCC 2998
  GI50: > 100 µM (inactive)
LOX IMVI
  GI50: > 100 µM (inactive)
UACC-62
  GI50: > 100 µM (inactive)
NCI-H226
  GI50: > 100 µM (inactive)
A549
  GI50: > 100 µM (inactive)
HCT-116
  GI50: > 100 µM (inactive)
SNB-75
  GI50: > 100 µM (inactive)
ACHN
  GI50: > 100 µM (inactive)
M14
  GI50: > 100 µM (inactive)
HT-29
  GI50: > 100 µM (inactive)
NCI-H522
  GI50: > 100 µM (inactive)
786-0
  GI50: > 100 µM (inactive)
SF-539
  GI50: > 100 µM (inactive)
SF-295
  GI50: > 100 µM (inactive)
TK-10
  GI50: > 100 µM (inactive)
Hs-578T
  GI50: > 100 µM (inactive)
MDA-MB-231
  GI50: > 100 µM (inactive)
NCI-H460
  GI50: > 100 µM (inactive)
COLO 205
  GI50: > 100 µM (inactive)
MDA-N
  GI50: > 100 µM (inactive)
IGROV-1
  GI50: > 100 µM (inactive)
BT-549
  GI50: > 100 µM (inactive)
A498
  GI50: > 100 µM (inactive)
KM12
  GI50: > 100 µM (inactive)
OVCAR-8
  GI50: > 100 µM (inactive)
UO-31
  GI50: > 100 µM (inactive)
MOLT-4
  GI50: > 100 µM (inactive)
SK-MEL-2
  GI50: > 100 µM (inactive)
NCI/ADR-RES
  GI50: > 100 µM (inactive)
HOP-92
  GI50: > 100 µM (inactive)
